± gives the expanded uncertainty stated by the source.
Key:
[1] = Molar enthalpy of transition or fusion; conditions: Crystal; DSC
[2] = Crystal; DTA

Molar enthalpy of transition or fusion [1]: 4.73 ± 0.179 kcal/mol | Triple point temperature [2]: 405.06 ± 0.39 K
SMILES: N#Cc1nccnc1C#N [2,3-pyrazinedicarbonitrile]
